In patent US20090270394A1, “CYCLYLAMINE DERIVATIVES AS CALCIUM CHANNEL BLOCKERS” (priority 2008, published 2009) one finds inhibition and IC50 data, which are given here for 26 compounds.

The target in the assay is T1, Human Cav2.2 channels (Homo sapiens, UniProt Q00975).
T1 construct: expressed in transfected cells
The experiment in a line: Fluorescent assay for Cav2.2 channels using potassium depolarization to initiate channel opening. Format: cell-based. The following applies: for inhibition at 10 µM: 10 μM compound, read-out: Cav 2.2 Activity % Inh at 10 μM; for inhibition at 30 µM: 30 μM compound, read-out: Cav 2.2 Activity % Inh at 30 μM; for IC50: 30 mM K (block of open and inactivated channels), read-out: Cav 2.2 Activity IC50 at 30 mM K. The text has this:
Human Cav2.2 channels were stably expressed in HEK293 cells along with alpha2-delta and beta subunits of voltage-gated calcium channels. An inwardly rectifying potassium channel (Kir2.3) was also expressed in these cells to allow more precise control of the cell membrane potential by extracellular potassium concentration. At low bath potassium concentration, the membrane potential is relatively negative, and is depolarized as the bath potassium concentration is raised. In this way, the bath potassium concentration can be used to regulate the voltage-dependent conformations of the channels. […] After the incubation period, Cav2.2 channel opening is triggered by addition of higher concentration of potassium (70 mM final concentration) to further depolarize the cell. The degree of state-dependent block can be estimated from the inhibitory potency of compounds after incubation in different potassium concentrations.
Calcium influx through Cav2.2 channels is determined using a calcium sensitive fluorescent dye in combination with a fluorescent plate reader. Fluorescent changes were measured with either a VIPR (Aurora Instruments) or FLIPR (Molecular Devices) plate reader.
• 1. Seed cells in Poly-D-Lysine Coated 96 or 384-well plate and keep in a 37° C.-10% CO2 incubator overnight • 2. […] Incubate in the dark at 25° C. for 60-70 min • 5. Remove dye, wash cells with 0.1 mL (96-well plate) or 0.06 mL (384-well plate) of 4, 12, 25, or 30 mM Potassium Pre-polarization Buffer (PPB) • 6. […] Incubate in the dark at 25° C. for 30 min • 8. Read cell plate on VIPR instrument, Excitation=480 nm, Emission=535 nm • 9. With VIPR continuously reading, add 0.1 mL (96-well plate) or 0.03 mL (384-well plate) of Depolarization Buffer (DB), which is 2× the final assay concentration, to the cell plate.

T1 sequence (Q00975 whole entry): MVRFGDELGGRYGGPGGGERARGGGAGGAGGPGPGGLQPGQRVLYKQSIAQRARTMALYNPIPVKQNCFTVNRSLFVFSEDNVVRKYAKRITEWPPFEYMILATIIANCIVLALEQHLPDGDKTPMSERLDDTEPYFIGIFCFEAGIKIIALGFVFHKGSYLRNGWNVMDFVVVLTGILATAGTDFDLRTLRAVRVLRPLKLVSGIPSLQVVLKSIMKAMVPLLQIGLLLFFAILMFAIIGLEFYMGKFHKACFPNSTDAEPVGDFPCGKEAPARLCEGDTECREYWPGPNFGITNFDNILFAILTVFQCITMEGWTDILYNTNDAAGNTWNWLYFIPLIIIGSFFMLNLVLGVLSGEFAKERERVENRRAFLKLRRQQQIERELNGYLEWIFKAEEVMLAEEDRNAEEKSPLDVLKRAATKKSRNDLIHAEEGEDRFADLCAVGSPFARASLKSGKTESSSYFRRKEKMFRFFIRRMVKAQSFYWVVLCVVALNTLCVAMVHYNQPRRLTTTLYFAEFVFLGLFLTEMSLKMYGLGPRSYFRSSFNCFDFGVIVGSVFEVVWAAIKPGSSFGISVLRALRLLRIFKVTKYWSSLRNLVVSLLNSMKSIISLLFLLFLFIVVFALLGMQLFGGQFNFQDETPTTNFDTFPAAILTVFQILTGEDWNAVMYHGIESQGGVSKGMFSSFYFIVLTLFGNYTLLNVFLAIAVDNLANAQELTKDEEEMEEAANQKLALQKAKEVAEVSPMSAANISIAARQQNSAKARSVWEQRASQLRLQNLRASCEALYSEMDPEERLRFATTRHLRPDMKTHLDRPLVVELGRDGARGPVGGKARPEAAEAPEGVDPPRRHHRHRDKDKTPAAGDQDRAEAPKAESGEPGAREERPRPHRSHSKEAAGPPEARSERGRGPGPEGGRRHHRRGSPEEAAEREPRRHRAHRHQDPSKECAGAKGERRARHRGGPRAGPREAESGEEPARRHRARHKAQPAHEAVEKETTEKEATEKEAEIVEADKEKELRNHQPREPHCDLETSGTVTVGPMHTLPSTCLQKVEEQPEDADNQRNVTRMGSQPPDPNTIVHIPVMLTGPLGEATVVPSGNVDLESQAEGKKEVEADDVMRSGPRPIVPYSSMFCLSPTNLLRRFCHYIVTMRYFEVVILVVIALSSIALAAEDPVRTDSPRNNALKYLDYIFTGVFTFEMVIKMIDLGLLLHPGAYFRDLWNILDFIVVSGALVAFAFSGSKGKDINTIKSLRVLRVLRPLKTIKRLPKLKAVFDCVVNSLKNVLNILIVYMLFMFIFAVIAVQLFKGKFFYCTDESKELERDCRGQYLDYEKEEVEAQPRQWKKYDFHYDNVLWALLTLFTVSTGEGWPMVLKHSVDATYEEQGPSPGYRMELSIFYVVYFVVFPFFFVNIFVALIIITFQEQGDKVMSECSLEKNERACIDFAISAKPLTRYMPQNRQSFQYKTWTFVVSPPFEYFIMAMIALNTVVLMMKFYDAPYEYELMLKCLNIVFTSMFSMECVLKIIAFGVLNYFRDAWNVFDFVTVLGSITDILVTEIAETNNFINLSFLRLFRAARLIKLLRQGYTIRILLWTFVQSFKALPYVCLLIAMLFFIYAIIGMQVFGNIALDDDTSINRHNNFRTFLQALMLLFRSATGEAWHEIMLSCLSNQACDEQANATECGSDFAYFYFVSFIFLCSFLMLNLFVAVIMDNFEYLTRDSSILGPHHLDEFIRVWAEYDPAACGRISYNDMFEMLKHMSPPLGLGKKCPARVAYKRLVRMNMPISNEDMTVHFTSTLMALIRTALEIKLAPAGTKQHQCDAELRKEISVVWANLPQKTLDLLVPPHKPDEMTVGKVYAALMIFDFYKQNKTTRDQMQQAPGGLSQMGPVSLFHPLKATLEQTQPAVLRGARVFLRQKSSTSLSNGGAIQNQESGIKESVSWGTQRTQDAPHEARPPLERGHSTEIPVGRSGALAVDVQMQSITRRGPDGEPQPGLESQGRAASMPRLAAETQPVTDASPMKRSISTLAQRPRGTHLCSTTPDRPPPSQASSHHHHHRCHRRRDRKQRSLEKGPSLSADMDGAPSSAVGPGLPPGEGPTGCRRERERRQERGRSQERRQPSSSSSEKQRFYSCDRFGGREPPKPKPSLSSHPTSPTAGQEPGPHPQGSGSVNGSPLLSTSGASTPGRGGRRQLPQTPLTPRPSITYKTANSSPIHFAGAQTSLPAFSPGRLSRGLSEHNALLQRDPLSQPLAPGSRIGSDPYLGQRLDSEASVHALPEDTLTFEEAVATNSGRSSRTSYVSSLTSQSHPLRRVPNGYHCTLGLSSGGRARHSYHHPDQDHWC
T1 sequence (P54289 25-1103 partner): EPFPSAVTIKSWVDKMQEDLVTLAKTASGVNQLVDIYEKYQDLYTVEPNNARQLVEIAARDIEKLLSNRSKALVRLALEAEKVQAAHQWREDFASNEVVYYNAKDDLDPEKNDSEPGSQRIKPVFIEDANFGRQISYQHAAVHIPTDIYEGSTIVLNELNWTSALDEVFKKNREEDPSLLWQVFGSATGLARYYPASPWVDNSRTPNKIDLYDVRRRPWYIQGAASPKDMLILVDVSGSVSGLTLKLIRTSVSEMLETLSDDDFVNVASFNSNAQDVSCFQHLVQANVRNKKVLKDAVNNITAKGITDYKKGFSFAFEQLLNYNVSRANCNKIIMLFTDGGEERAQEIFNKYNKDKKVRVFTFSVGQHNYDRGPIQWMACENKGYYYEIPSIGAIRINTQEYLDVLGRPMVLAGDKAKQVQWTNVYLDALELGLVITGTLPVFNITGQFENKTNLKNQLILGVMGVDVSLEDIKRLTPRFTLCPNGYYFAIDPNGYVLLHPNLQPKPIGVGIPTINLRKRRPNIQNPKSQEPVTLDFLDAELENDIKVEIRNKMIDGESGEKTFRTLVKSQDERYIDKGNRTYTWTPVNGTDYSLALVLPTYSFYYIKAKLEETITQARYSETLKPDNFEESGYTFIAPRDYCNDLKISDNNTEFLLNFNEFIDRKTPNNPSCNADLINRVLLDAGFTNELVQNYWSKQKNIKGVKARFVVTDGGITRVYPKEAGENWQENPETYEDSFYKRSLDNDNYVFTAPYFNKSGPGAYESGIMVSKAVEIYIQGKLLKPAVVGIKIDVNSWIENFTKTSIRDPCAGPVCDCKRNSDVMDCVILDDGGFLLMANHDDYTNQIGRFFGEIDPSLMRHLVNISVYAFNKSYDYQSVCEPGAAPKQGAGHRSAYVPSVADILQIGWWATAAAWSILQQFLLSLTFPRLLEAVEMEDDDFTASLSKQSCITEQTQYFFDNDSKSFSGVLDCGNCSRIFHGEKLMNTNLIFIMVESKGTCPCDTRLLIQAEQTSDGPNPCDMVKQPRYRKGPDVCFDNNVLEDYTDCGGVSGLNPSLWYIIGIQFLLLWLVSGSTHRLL
T1 sequence (P54284 whole entry partner): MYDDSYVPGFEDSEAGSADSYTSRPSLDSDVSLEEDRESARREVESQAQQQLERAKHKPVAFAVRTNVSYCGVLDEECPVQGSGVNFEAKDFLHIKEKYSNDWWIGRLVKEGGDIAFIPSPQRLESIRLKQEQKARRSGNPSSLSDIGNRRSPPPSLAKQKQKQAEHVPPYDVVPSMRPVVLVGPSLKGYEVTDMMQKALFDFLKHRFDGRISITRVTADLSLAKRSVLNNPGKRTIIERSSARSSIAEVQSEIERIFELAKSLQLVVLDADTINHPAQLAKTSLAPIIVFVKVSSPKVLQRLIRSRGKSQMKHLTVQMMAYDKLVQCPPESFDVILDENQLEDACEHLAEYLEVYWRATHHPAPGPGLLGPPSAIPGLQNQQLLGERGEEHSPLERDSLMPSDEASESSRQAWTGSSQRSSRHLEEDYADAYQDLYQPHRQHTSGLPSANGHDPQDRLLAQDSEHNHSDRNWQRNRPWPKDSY

In the case of `CC(C)(C)OC(=O)N1CCC(NC(=O)c2cc(C(C)(C)C)nc(C(C)(C)C)c2)(C(=O)NCc2ccccc2)CC1` [Compound 59, tert-butyl 4-(benzylcarbamoyl)-4-(2,6-di-tert-butylisonicotinamido)piperidine-1-carboxylate], the inhibition at 10 µM amounted to 50.2% and the inhibition at 30 µM was determined as 62.5%.
For `CC(C)(C)c1cc(C(=O)NC2(C(=O)NCc3ccc(S(C)(=O)=O)cc3)CCCCC2)cc(C(C)(C)C)n1` [Compound 106, 2,6-di-tert-butyl-N-(1-(4-(methylsulfonyl)benzylcarbamoyl)cyclohexyl)isonicotinamide], the half-inhibitory concentration (IC50) (commonly the concentration at which inhibition is half-maximal) is 317 nM.
Consider `CC(C)(C)c1cc(C(=O)NC2(C(=O)NCc3cccc(C(F)(F)F)c3)CCCC2)cc(C(C)(C)C)c1` [Compound 39, 3,5-di-tert-butyl-N-(1-(3-(trifluoromethyl)benzylcarbamoyl)cyclopentyl)benzamide], for which the inhibition at 10 µM turned out to be 79.6%, the inhibition at 30 µM was determined as 77.9% and the IC50 was determined as 513 nM.
Turning to `CC(C)(C#N)c1ccc(C(=O)NC2(C(=O)NCc3cccc(C(F)(F)F)c3)Cc3ccccc3C2)cc1` [Compound 55, 2-(4-(2-cyanopropan-2-yl)benzamido)-N-(3-(trifluoromethyl)benzyl)-2,3-dihydro-1H-indene-2-carboxamide], the inhibition at 10 µM stood at 89% and the inhibition at 30 µM came out at 100%.
Consider `COc1c(C(C)(C)C)cc(C(=O)NC2(C(=O)NCc3cnc(C)cn3)CCN(C(=O)OC(C)(C)C)CC2)cc1C(C)(C)C` [Compound 22, tert-butyl 4-(3,5-di-tert-butyl-4-methoxybenzamido)-4-((5-methylpyrazin-2-yl)methylcarbamoyl)piperidine-1-carboxylate], for which the inhibition at 10 µM worked out at 95.1% and the half-maximal inhibitory concentration (IC50) was 402 nM.
`COc1ccc(CNC(=O)C2(NC(=O)c3cc(C(C)(C)C)nc(C(C)(C)C)c3)CCCC2)cc1` [Compound 89, 2,6-di-tert-butyl-N-(1-(4-methoxybenzylcarbamoyl)cyclopentyl)isonicotinamide]: the inhibition at 10 µM was found to be 90.8%, the inhibition at 30 µM came to 100% and the IC50 was 54.6 nM.
Regarding `COc1c(C(C)(C)C)cc(CNC(=O)C2(NC(=O)c3cccc(C(F)(F)F)c3)CCCCC2)cc1C(C)(C)C` [Compound 73, N-(1-(3,5-di-tert-butyl-4-methoxybenzylcarbamoyl)cyclohexyl)-3-(trifluoromethyl)benzamide], the inhibition at 10 µM came to 95.2%, the inhibition at 30 µM was 97.7% and the IC50 was found to be 124 nM.
For the compound `CC(C)(C#N)c1cc(C(=O)NC2(C(=O)NCc3cccc(C(F)(F)F)c3)CCCCC2)cc(C(C)(C)C#N)c1` [Compound 40, 3,5-bis(2-cyanopropan-2-yl)-N-(1-(3-(trifluoromethyl)benzylcarbamoyl)cyclohexyl)benzamide], the inhibition at 10 µM came to 80%, the inhibition at 30 µM was 77.6% and the 50% inhibitory concentration (IC50) came out at 367 nM.
Regarding `CC(C)(C)c1cc(C(=O)NC2(C(=O)NCc3ccccc3)CCCCC2)cc(C(C)(C)C)c1` [Compound 44, N-(1-(benzylcarbamoyl)cyclohexyl)-3,5-di-tert-butylbenzamide], the inhibition at 10 µM was found to be 92.5%, the inhibition at 30 µM is 97.3% and the half-maximal inhibitory concentration (IC50) stood at 60.4 nM.
For the compound `COc1c(C(C)(C)C)cc(CNC2(C(=O)NCc3cccc(C(F)(F)F)c3)CCCCC2)cc1C(C)(C)C` [Compound 71, 1-(3,5-di-tert-butyl-4-methoxybenzylamino)-N-(3-(trifluoromethyl)benzyl)cyclohexanecarboxamide], the inhibition at 10 µM is 77.3%, the inhibition at 30 µM stood at 81.1% and the IC50 is 477 nM.
Take `CC(C)(C)c1cc(NC(=O)C2(NCc3ccccc3)CCCCC2)cc(C(C)(C)C)c1` [Compound 43, 1-(benzylamino)-N-(3,5-di-tert-butylphenyl)cyclohexanecarboxamide]: the inhibition at 10 µM was 76.2% and the inhibition at 30 µM came out at 82.5%.
As to `CC(C)(C)c1cc(C(=O)NC2(C(=O)NCc3ccccc3)Cc3ccccc3C2)cc(C(C)(C)C)n1` [Compound 52, N-(2-(benzylcarbamoyl)-2,3-dihydro-1H-inden-2-yl)-2,6-di-tert-butylisonicotinamide], the inhibition at 10 µM came to 82.2%, the inhibition at 30 µM worked out at 91.3% and the IC50 is 893 nM.
On to `CC(C)(C)c1cc(C(=O)NC2(C(=O)NCc3ccc(S(C)(=O)=O)cc3)CCCCC2)cc(C(C)(C)C)c1` [Compound 107, 3,5-di-tert-butyl-N-(1-(4-(methylsulfonyl)benzylcarbamoyl)cyclohexyl)benzamide], for which the half-maximal inhibitory concentration (IC50) is 143 nM.
Regarding `CC(C)(C)c1cc(C(=O)NC2(C(=O)N3CCCC3)CCCCC2)cc(C(C)(C)C)n1` [Compound 66, 2,6-di-tert-butyl-N-(1-(pyrrolidine-1-carbonyl)cyclohexyl)isonicotinamide], the IC50 was determined as 960 nM.
Take `CC(C)(C)c1cc(C(=O)NC2(C(=O)NCc3ccccc3)CCCC2)cc(C(C)(C)C)c1` [Compound 36, N-(1-(benzylcarbamoyl)cyclopentyl)-3,5-di-tert-butylbenzamide]: the inhibition at 10 µM was found to be 92%, the inhibition at 30 µM stood at 96.4% and the IC50 stood at 251 nM.
On to `CC(C)(C)c1cc(C(=O)NC2(C(=O)NCc3ccncc3)CCCCC2)cc(C(C)(C)C)n1` [Compound 100, 2,6-di-tert-butyl-N-(1-(pyridin-4-ylmethylcarbamoyl)cyclohexyl)isonicotinamide], for which the half-inhibitory concentration (IC50) came out at 154 nM.
As for `CC(C)(C)c1cc(C(=O)NC2(C(=O)Nc3nc4ccccc4[nH]3)CC2)cc(C(C)(C)C)n1` [Compound 19, N-(1-(1H-benzo[d]imidazol-2-ylcarbamoyl)cyclopropyl)-2,6-di-tert-butylisonicotinamide], the inhibition at 10 µM is 60.3%.
For the compound `COc1ccc(CNC(=O)C2(NC(=O)c3cc(C(C)(C)C)c(O)c(C(C)(C)C)c3)CC2)cc1` [Compound 109, 3,5-di-tert-butyl-4-hydroxy-N-(1-(4-methoxybenzylcarbamoyl)cyclopropyl)benzamide], the inhibition at 10 µM was determined as 29.8%, the inhibition at 30 µM was 40% and the half-maximal inhibitory concentration (IC50) was 87.7 nM.
Consider `CC(C)(C)c1cc(C(=O)NC2(C(=O)NCc3cccnc3)CCCCC2)cc(C(C)(C)C)c1` [Compound 103, 3,5-di-tert-butyl-N-(1-(pyridin-3-ylmethylcarbamoyl)cyclohexyl)benzamide], for which the IC50 worked out at 65.3 nM.
Turning to `CC(C)(C)NC(=O)C(C)(C)c1cc(C(=O)NC2(C(=O)NCc3ccccc3)CCCCC2)cc(C(C)(C)C(=O)NC(C)(C)C)c1` [Compound 63, 2,2′-(5-(1-(benzylcarbamoyl)cyclohexylcarbamoyl)-1,3-phenylene)bis(N-tert-butyl-2-methylpropanamide)], the inhibition at 10 µM was found to be 66.4% and the inhibition at 30 µM was 82%.
Consider `COc1ccc(C(=O)NC2(C(=O)NCc3cc(C(C)(C)C)c(OC)c(C(C)(C)C)c3)CCCCC2)cc1` [Compound 74, N-(1-(3,5-di-tert-butyl-4-methoxybenzylcarbamoyl)cyclohexyl)-4-methoxybenzamide], for which the inhibition at 10 µM was 98.9%, the inhibition at 30 µM stood at 106% and the IC50 was 55.8 nM.
Take `CC(C)(C)c1cc(C(=O)NC2(C(=O)NCc3nccs3)CC2)cc(C(C)(C)C)n1` [Compound 10, 2,6-di-tert-butyl-N-(1-(thiazol-2-ylmethylcarbamoyl)cyclopropyl)isonicotinamide]: the inhibition at 10 µM came to 95.7%, the inhibition at 30 µM turned out to be 101% and the IC50 amounted to 184 nM.
Turning to `CNC(=O)C1(NC(=O)c2cc(C(C)(C)C)cc(C(C)(C)C)c2)CCCCC1` [Compound 35, 3,5-di-tert-butyl-N-(1-(methylcarbamoyl)cyclohexyl)benzamide], the inhibition at 10 µM was found to be 92.5%, the inhibition at 30 µM worked out at 98.6% and the half-maximal inhibitory concentration (IC50) came out at 1260 nM.
Regarding `CN1CCN(C(=O)C2(NC(=O)c3cc(C(C)(C)C)nc(C(C)(C)C)c3)CCCC2)CC1` [Compound 93, 2,6-di-tert-butyl-N-(1-(4-methylpiperazine-1-carbonyl)cyclopentyl)isonicotinamide], the inhibition at 10 µM amounted to 83.9%, the inhibition at 30 µM turned out to be 85.5% and the concentration for half-maximal inhibition (IC50) amounted to 856 nM.
With `COc1c(C(C)(C)C)cc(CC(=O)NC2(C(=O)NCc3ccccc3)CCCCC2)cc1C(C)(C)C` [Compound 17, N-benzyl-1-(2-(3,5-di-tert-butyl-4-methoxyphenyl)acetamido)cyclohexanecarboxamide], the inhibition at 10 µM came out at 48.2% and the inhibition at 30 µM amounted to 90.6%.
As to `CC(C)(C#N)c1ccc(C(=O)NC2(C(=O)NCc3ccccc3)CCCCC2)cc1` [Compound 122, N-(1-(benzylcarbamoyl)cyclohexyl)-4-(2-cyanopropan-2-yl)benzamide], the inhibition at 10 µM was found to be 45.2% and the inhibition at 30 µM was found to be 80.5%.
